How the values were obtained:
[1] = Stability in 50% diluted pooled rat serum assessed compound degradation at 1.5 mg measured within 2 hrs by HPLC analysis; assay type: ADME, cell-free
[2] = Stability in 50% diluted pooled rat serum assessed parent compound remaining at 1.5 mg measured after 24 hrs by HPLC analysis; assay type: ADME, cell-free; settings: read-out: Stability
[3] = tested on: N2a; experiment: Neuroprotective activity against oxygen-glucose deprivation/reperfusion injury in mouse Neuro2a cells assessed as cell viability at 6.25 uM added 4 hrs prior to oxygen-glucose deprivation induction by MTT assay (Rvb 61 +/- 5%); assay type: functional; settings: read-out: Activity
[4] = tested on: N2a; experiment: Neuroprotective activity against oxygen-glucose deprivation/reperfusion injury in mouse Neuro2a cells assessed as cell viability at 50 uM added 4 hrs prior to oxygen-glucose deprivation induction by MTT assay (Rvb 61 +/- 5%); assay type: functional; settings: read-out: Activity

Row | SMILES | Stability [1] | remaining at 24 h [2] | viability at 6.25 µM [3] | viability at 50 µM [4]
1 | CC(C)C[C@H](NC(=O)[C@@H](NC(=O)CNC(=O)[C@H](CO)NC(=O)[C@H](CC(C)C)NC(=O)[C@@H](N)CC(C)C)C(C)C)C(=O)NCC(=O)NCC(=O)O | Stable | – | – | –
2 | CC(C)C[C@H](N)C(=O)N[C@H](CC(C)C)C(=O)N[C@@H](CO)C(=O)NCC(=O)N[C@H](C(=O)N[C@H](CC(C)C)C(=O)NCC(=O)O)C(C)C | – | 65% | 79% | –
3 | CC(C)C[C@H](NC(=O)[C@@H](N)CC(C)C)C(=O)N[C@@H](CO)C(=O)NCC(=O)N[C@H](C(=O)O)C(C)C | Stable | – | – | –
4 | CC(C)C[C@H](NC(=O)[C@@H](NC(=O)CNC(=O)[C@H](CO)NC(=O)[C@H](CC(C)C)NC(=O)[C@@H](N)CC(C)C)C(C)C)C(=O)NCC(=O)O | Stable | – | – | –
5 | CC(C)C[C@H](N)C(=O)N[C@H](CC(C)C)C(=O)N[C@@H](CO)C(=O)NCC(=O)N[C@H](C(=O)O)C(C)C | – | 65% | – | 86%
6 | CC1=NN(c2ccccc2)C(=O)C1 [EDARAVONE] | – | – | – | 90%
7 | CC(C)C[C@H](N)C(=O)N[C@H](CC(C)C)C(=O)N[C@@H](CO)C(=O)NCC(=O)N[C@H](C(=O)N[C@H](CC(C)C)C(=O)NCC(=O)NCC(=O)O)C(C)C | – | 65% | – | 82%

Source: ChEMBL document CHEMBL4387789, “Linear Peptides Containing d-Leucine with Neuroprotective Activities from the Leech Whitmania pigra Whitman” (J Nat Prod, 2019)
